Data on four substances can be found in patent US11155577B2, “Thiol-ene based peptide stapling and uses thereof” (University of Utah Research Foundation, priority 2015, dated 2021).

Bridge positions count the residues as written; N and C are the ends. Square brackets hold non-standard residues; d marks the D form. S5 = C=CCCC[C@](C)(N)C(=O)O; Ae = not defined here

Data set [1] has as its system p53-null HCT-116 colorectal carcinoma cells. The settings on record: F. Bernal et al., Cancer Cell 2010; cited from earlier work.
The test system is the same in data set [2]. The data set can be described thus: Cell-viability assay (CellTiter Glo), HCT-116 p53 null. It counts as cell-based. Particulars: 24-hour incubation. How it is done:
(§1) Both HCT-116 cell lines, i.e., HCT-116 p53 wild-type and HCT-116 p53 null, were obtained from Dr. Trudy Oliver (University of Utah). Cell lines were cultured in 10% FBS media (DMEM, Pen/Strep). Briefly. 20,000 cells/well in 1% FBS media were seeded in 96-well plates. After 24 hours, stapled peptides with various concentrations were added to each well. After another 24-hour incubation, media were aspirated and CellTiter Glo reagent was added according to the protocol from Promega. Luminescence signal was measured by automatic plate reader (BioTek Synergy Neo).
A general note: In ATP-based viability assays light output follows the ATP content of the culture.

Data set [3] is described as follows: Circular dichroism (CD) evaluation of alpha helicity. It counts as physicochemical. The settings on record: in water, 25° C., 100 μM peptide. How it is done: All CD spectra were recorded on an AVIV Model 410 spectrophotometer (AVIV) in water in a 1 mm QS quartz cuvette (Stama) at 25° C. Wavelength scans were performed at 1-nm resolution with 1-s averaging time. Data from double scans were averaged, blank subtracted, and normalized to mean residue ellipticity by the following equation; [θ]=100×θ/C×l×(n−1), where C is concentration of protein in mM, l is path length in centimeters, and n is the number of residues in the protein. The concentrations of the protein samples used for CD experiments were 100 μM. The percentage helicity was calculated from the […] at 222 nm using helical models as previously reported (Y. H. Chen, J. T. Yang, K. H. Chau. Biochemistry 1974, 13, 3350-3359).
A general note: CD spectra are sensitive to the conformation of chiral molecules.

For data set [4], the system named is p53 wild-type HCT-116 colorectal carcinoma cells. Particulars: F. Bernal et al., Cancer Cell 2010; cited from earlier work.
The test system is the same in data set [5]. The data set can be described thus: Cell-viability assay (CellTiter Glo), HCT-116 p53 wild-type. The settings on record: 24-hour incubation. It counts as cell-based. How it is done:
as §1

For another data set, the target named is T1, p53-MDM2 interaction (Homo sapiens, UniProt Q00987).
T1 construct: purchased Enzo Life Sciences
The data set can be described thus: ELISA assay for p53-MDM2 interactions. It counts as binding. Particulars: 1-hour incubation with p53-MDM2 protein complexes. The procedure:
The ELISA kit was purchased from Enzo Life Sciences (New York, USA). TMB substrate was purchased from Cell Signaling Technology (Massachusetts. USA). The assay was performed according to the manufacture's protocol. Briefly, p53 antibody was coated on a 96-well plate overnight. After the coating, peptides and p53-MDM2 protein complexes were diluted in assay buffer and added to the wells. After 1-hour incubation, all wells were washed and detection antibody was added. After another 1-hour incubation, SA-HRP was added and incubated for 30 minutes before TMB substrate was added. 1N HCl was then added to stop the color development and the signal was measure using automatic plate reader (BioTek Synergy Neo).
(ELISA stands for enzyme-linked immunosorbent assay.)

T1 sequence (Q00987 whole entry): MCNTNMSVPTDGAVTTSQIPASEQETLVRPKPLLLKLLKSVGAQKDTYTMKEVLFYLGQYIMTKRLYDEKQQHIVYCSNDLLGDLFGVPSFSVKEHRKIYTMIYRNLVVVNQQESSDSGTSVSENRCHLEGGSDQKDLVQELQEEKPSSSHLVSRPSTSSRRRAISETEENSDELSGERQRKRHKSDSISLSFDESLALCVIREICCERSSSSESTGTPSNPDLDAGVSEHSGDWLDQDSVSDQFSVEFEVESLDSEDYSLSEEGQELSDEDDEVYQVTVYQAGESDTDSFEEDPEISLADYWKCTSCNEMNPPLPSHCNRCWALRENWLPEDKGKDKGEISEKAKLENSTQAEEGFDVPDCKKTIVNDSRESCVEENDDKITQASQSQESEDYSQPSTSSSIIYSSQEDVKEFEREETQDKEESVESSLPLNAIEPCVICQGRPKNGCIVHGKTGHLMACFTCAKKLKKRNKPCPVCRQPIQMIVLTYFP

For the substance “Ac-Gln-Ser-Gln-Gln-Thr-Phe-R8-Asn-Leu-Trp-Arg-Leu-Leu-S5-Gln-Asn-NH2 [Peptide 12]”, the “induction of cell apoptosis in p53 null cells (previously reported)” value in data set [1] is on record as “not p53 null cells”. Moreover, in data set [2], the “induction of apoptosis / cell viability in p53 null cells” value was “not p53 null cells”. Besides, the “alpha helicity (CD spectra)” value in data set [3] was “significant increase of alpha helicity compared to the unstapled peptide 13”. The “induction of cell apoptosis in p53 wild-type cells (previously reported)” value in data set [4] is listed as “selectively induces cell apoptosis in p53 wild-type cells”. Further, in data set [5], the “induction of apoptosis / cell viability in p53 wild-type cells” value is “induction of apoptosis in p53 wild-type cells”.

With “Ac-Glu-Asn-Pro-GLu-S5-Ile-Leu-Asp-S5-His-Val-Gln-Arg-Val-Met-NH2 (Ac-ENPE[S5]ILD[S5]HVQRVM-NH2; staple 5-9; SMILES CC[C@H](C)[C@@H]1NC(=O)[C@@](C)(NC(=O)[C@H](CCC(=O)O)NC(=O)[C@@H]2CCCN2C(=O)[C@H](CC(N)=O)NC(=O)[C@H](CCC(=O)O)NC(C)=O)CCCC=CCCC[C@@](C)(C(=O)N[C@@H](Cc2c[nH]cn2)C(=O)N[C@H](C(=O)N[C@@H](CCC(N)=O)C(=O)N[C@@H](CCCNC(=N)N)C(=O)N[C@H](C(=O)N[C@@H](CCSC)C(N)=O)C(C)C)C(C)C)NC(=O)[C@H](CC(=O)O)NC(=O)[C@H](CC(C)C)NC1=O) [Peptide 9]”, in data set [3], the “alpha helicity (CD spectra)” value is given as “strong alpha-helical characteristics”.

Take “Ac-Glu-Asn-Pro-Glu-Cys-Ile-Leu-Asp-Cys-His-Val-Gln-Arg-Val-Met-NH2 (Ac-ENPECILDCHVQRVM-NH2; cysteine pairing not given here) [Peptide 10, unstapled axin homologue with 2 Cys residues]”: the “alpha helicity (CD spectra)” value in data set [3] is given as “low alpha-helical property”.

Take “Ae-Gln-Ser-Gln-Gln-Thr-Phe-Cys-Asn-Leu-Trp-Arg-Leu-Leu-Cys-Gln-Asn-NH2 (Ae-QSQQTFCNLWRLLCQN-NH2; not fully specified; printed as Ae-Gln-Ser-Gln-Gln-Thr-Phe-Cys-Asn-Leu-Trp-Arg-Leu-Leu-Cys-Gln-Asn-NH2; cysteine pairing not given here; reading uncertain) [Peptide 13, unstapled p53 homologue with 2 Cys residues]”: the “blocking of the p53-MDM2 interaction” value in the data set with p53-MDM2 interaction is reported as “did not block the p53-MDM2 interaction”.
